“Also recorded” adds a separate entry of the source.
Tests used:
[1] = system: Raji cells expressing HLA-DR10; assay: Whole cell binding assay with 111In-labeled SHAL; format: cell-based, human; settings: for SHAL bound by Raji cells relative to parent SHAL: unwashed
Description: Raji human Burkitt's lymphoma B-cells (American Type Culture Collection, Manassas, Va.) were maintained in RPMI-1640 media supplemented with 10% fetal bovine serum, 2mM L-glutamine, 1 mM sodium pyruvate, 1% of a solution of nonessential amino acids (GIBCO #11140-050), and 100 units/ml of Penicillin G, 100 μg/ml Streptomycin, and 0.25 μg/ml of Amphotericin B at 37° C. in a humidified 5% CO2 atmosphere. Jurkat's cells (American Type Culture Collection, Manassas, Va.), an acute leukemia T-cell line, were maintained in the same medium with the addition of 10 mM 4-(2-hydroxyethyl)-1-piperazineethanesulfonic acid (HEPES).
A series of experiments were conducted to quantify the uptake of the ^111In-labeled parent SHAL (DvLPBaPPP)2LLDo and its hexa-arginine analog (DvLPBaPPP)2LArg6AcLLDo by Raji cells, a cell line that has been previously shown to express the HLA-DR10 variant. The assays were conducted using aliquots containing 10^6 cells suspended in 150 μl of PBS with 5% bovine serum albumin (BSA). Aliquots of cells were treated with 0.1, 1, 5, 10 or 25 ng of ^111In-labeled (DvLPBaPPP)2LLDo or (DvLPBaPPP)2LArg6AcLLDo for one hour at both 4° C. and 22° C. The tubes containing the treated cells were centrifuged to separate the cell pellet from the supernatant and the two fractions were counted in a calibrated gamma well counter to determine the amount of bound and free SHAL. Half of the cell pellets were washed twice with PBS and incubated at 22° C. for 15 min before centrifuging them again. The pooled washes and washed cell pellets were subsequently counted in the gamma well counter to assess how much of the bound SHAL could be removed by washing.
In vitro cell binding experiments were conducted using ^111In-labeled parent SHAL and the hexa-arginine SHAL analog to quantify SHAL uptake and to evaluate the effect of adding the hexa-arginine tag. Uptake was assessed using Raji cells, a lymphoma cell line expressing HLA-DR10. Aliquots containing 10^6 cells were incubated with increasing amounts of SHAL containing ^111In labeled SHAL as a tracer, and cell-associated ^111In was measured before and after washing the cell pellets.

[2] = Stability in human plasma by cellulose acetate electrophoresis; format: in vitro ADME; settings: human plasma at 37° C. for 24 hrs; one preliminary CAE experiment
From the text: Two forms of the free amine SHAL, (DvLPBaPPP)2LLA, and the hexa-arginine analog, (DvLPBaPPP)2LArg6AcLLA, were synthesized in multi-milligram amounts and purified by high performance liquid chromatography (HPLC). A biotin was attached to the ε-amino group of the terminal amine (A) on both (DvLPBaPPP)2LLA and (DvLPBaPPP)2LArg6AcLLA to produce biotinylated forms for use in cell and protein binding experiments. 1,4,7,10-tetraazacyclododecane-1,4,7,10-tetraacetic acid (DOTA) was attached to both (DvLPBaPPP)2LLA and (DvLPBaPPP)2LArg6AcLLA at the same site to enable the SHALs to be labeled with ^111In. The DOTA SHAL (DvLPBaPPP)2LLDo (FIG. 25A) and the hexa-arginine SHAL analog (DvLPBaPPP)2LArg6AcLLDo (FIG. 25B) were labeled with ^111In at high efficiency (>90%) with specific activities ranging from 70-85 μCi/μg SHAL. […] D-isomers of arginine incorporated during the synthesis of the hexa-arginine sequence in (DvLPBaPPP)2LArg6AcLLDo were used to minimize the proteolytic susceptibility of the peptide.

Raji xenografts = assay: Efficacy in mice with Raji xenografts; format: in vivo, athymic Balb/c nu/nu mice
From the text: Seven- to nine-week old female, athymic Balb/c nu/nu mice (Harlan Sprague Dawley, Inc., Frederick, Md.) were maintained according to University of California animal care guidelines under pathogen-free conditions and on a normal ad libitum diet. Raji or Jurkat's cells harvested in log phase and having >95% viability were implanted (6×10^6 cells) subcutaneously in the lower abdomen 3-4 days after the mice were irradiated (400 cGy) to suppress xenograft rejection. When xenografts reached 20-500 mm3 by caliper measurement, the mice were sorted by xenograft volume into 4 groups: SHAL-treated mice with Raji xenografts, SHAL-treated mice with Jurkat's xenografts, untreated mice with Raji xenografts or untreated mice with Jurkat's xenografts. Each mouse was injected with 100 μl of PBS or 100 ng DOTA-chelated tridentate SHAL i.p. on days 0, 7 and 14. Xenograft volume and survival were monitored for ≥84 days. The mice were also weighed 2-3 times each week for 4 weeks then weekly. Blood counts were measured prior to each SHAL or PBS dose and weekly for 4 weeks after the final dose using a Z Series Coulter Counter (Beckman Coulter Inc., Hialeah, Fla.) and a phase contrast microscope (Zeiss, Jena, Germany).
Xenograft volumes were calculated by the formula for hemiellipsoids (DeNardo et al. (1997) Clin. Cancer Res. 3: 71-79). […] If a xenograft became >2000 mm3, the mouse was euthanized in accordance with University of California animal care guidelines and scored as a disease-related death.
Initial analysis compared response rates by exact tests and survival times by log-rank tests for untreated Raji and Jurkat's mice and found no significant differences, so these groups were pooled for subsequent analysis. Response rates for treated Raji, treated Jurkat's and untreated mice were compared by x^2 and exact tests. Survival times were censored at 84 days for mice who had not died or been euthanized because of tumor growth before that time. Times were summarized descriptively by Kaplan-Meier curves and median survival and 95% confidence limits were obtained by the product-limit estimate. The two treated groups were compared to the untreated using a log-rank test for homogeneity across groups, followed by a proportional hazards model to estimate the effect of treatment compared to no treatment. Analyses were carried out using SAS/SAT® software (SAS Institute, Inc. SAS/STAT Version 9.0. 2004. Cary, N.C.: SAS Institute). All tests were two-sided at level 0.05.

degradation in human plasma [2]	Structure (SMILES)	pmoles SHAL Bound/10^6 cells unwashed ([1]; 5.3 pmoles of 111In-labeled SHAL, unwashed cell pellets)	pmoles SHAL Bound/10^6 cells Washed ([1]; 5.3 pmoles of 111In-labeled SHAL, washed two times with BSA/buffer)	SHAL remaining associated with Raji cells after washing relative to parent SHAL ([1]; 111In-labeled, after washing, listed as hexa-arginine SHAL)	SHAL bound by Raji cells relative to parent SHAL ([1]; 111In-labeled, listed as hexa-arginine SHAL)	SHAL bound by Raji cells relative to parent SHAL ([1]; 111In-labeled, listed as hexa-arginine SHAL analog)	proportion of SHAL retained by the cells after washing ([1]; Raji cells, after washing)	Percent SHAL Retained ([1]; after washing two times)	amount of residualized SHAL ([1]; highest concentration tested)	ORR (overall response rate) (Raji xenografts; 100 ng DOTA-chelated tridentate SHAL i.p. days 0, 7 and 14)	Cure (Raji xenografts; 100 ng DOTA-chelated tridentate SHAL i.p. days 0, 7 and 14, censored at 84 days)	overall survival (FIG. 31) (Raji xenografts; 100 ng SHAL i.p. once weekly for 3 consecutive weeks)	median survival time (Raji xenografts; 100 ng SHAL i.p. weekly x3, censored at 84 days)	xenograft response in one mouse (FIG. 30) (Raji xenografts; by three weeks after the initial 100 ng dose i.p.)	persistence of cures (Raji xenografts; cures at 84 days)	reduction in hazard of death (Raji xenografts; treated Raji mice compared to untreated and treated Jurkat's mice, proportional hazards model)	time at which regression began after initial SHAL treatment (Raji xenografts; treated Raji xenografts)	time to complete remission after initial SHAL treatment (Raji xenografts; treated Raji xenografts)
no evidence of degradation	CC(=O)NC(CCCNC(=N)N)C(=O)NC(CCCNC(=N)N)C(=O)NC(CCCNC(=N)N)C(=O)NC(CCCNC(=N)N)C(=O)NC(CCCNC(=N)N)C(=O)NC(CCCNC(=N)N)C(=O)NCCCCC(NC(=O)C(CCCCNC(=O)COCCOCCNC(=O)COCCOCCNC(=O)COCCOCCNC(=O)C(CCCCNC(=O)COCCOCCNC(=O)c1ccc(NC(=O)C(CCCNC(=N)N)NC(=O)c2ccccc2)cc1)NC(=O)C(NS(=O)(=O)c1ccc(N=Nc2ccc(N(C)C)cc2)cc1)C(C)C)NC(=O)COCCOCCNC(=O)COCCOCCNC(=O)COCCOCCNC(=O)C(CCCCNC(=O)COCCOCCNC(=O)c1ccc(NC(=O)C(CCCNC(=N)N)NC(=O)c2ccccc2)cc1)NC(=O)C(NS(=O)(=O)c1ccc(N=Nc2ccc(N(C)C)cc2)cc1)C(C)C)C(=O)NC(CCCCNC(=O)CN1CCN(CC(=O)O)CCN(CC(=O)O)CCN(CC(=O)O)CC1)C(=O)O (stereo not drawn) [(DvLPBaPPP)2LArg6AcLLDo]	1.300 ± 0.038 pmoles SHAL Bound/10^6 cells	0.876 ± 0.017 pmoles SHAL Bound/10^6 cells	Three fold more; also recorded: three times	twice as much	two fold more	67%	67%	~1.1×10^6 SHAL molecules per cell									
	CC(C)C(NS(=O)(=O)c1ccc(N=Nc2ccc(N(C)C)cc2)cc1)C(=O)NCCOCCOCC(=O)NC(CCCCNC(=O)C(CCCCNC(=O)CC(=O)Nc1ccccc1Oc1ncc(C(F)(F)F)cc1Cl)NC(=O)COCCOCCNC(=O)c1ccc(N2CCN(Cc3ccc(Cl)cc3)CC2)c([N+](=O)[O-])c1)C(=O)NCCOCCOCC(=O)NC(CCCCNC(=O)CN1CCN(CC(=O)O)CCN(CC(=O)O)CCN(CC(=O)O)CC1)C(=O)O (stereo not drawn) [tridentate SHAL]									77%	69%	longest survival	not estimable	completely regressed	persisted over a 210-day observation time	85%	~7 days	~30 days
